Where two headings read alike, the source gives them in different places.
Legend:
Format in all cases: cell-based
[1] = molecular target: T1, human TLR7 (Homo sapiens, UniProt Q9NYK1); experiment: TLR7 inhibition reporter assay (HEK-Blue cells, secreted embryonic alkaline phosphatase reporter); details: HEK-Blue cells overexpressing human TLR7, stimulated with gardiquimod 7.5 μM; read-out: TLR 7 IC50
T1 construct: host or cells: HEK-Blue cells (HEK293-derived reporter line)
T1 sequence (Q9NYK1 27-1049): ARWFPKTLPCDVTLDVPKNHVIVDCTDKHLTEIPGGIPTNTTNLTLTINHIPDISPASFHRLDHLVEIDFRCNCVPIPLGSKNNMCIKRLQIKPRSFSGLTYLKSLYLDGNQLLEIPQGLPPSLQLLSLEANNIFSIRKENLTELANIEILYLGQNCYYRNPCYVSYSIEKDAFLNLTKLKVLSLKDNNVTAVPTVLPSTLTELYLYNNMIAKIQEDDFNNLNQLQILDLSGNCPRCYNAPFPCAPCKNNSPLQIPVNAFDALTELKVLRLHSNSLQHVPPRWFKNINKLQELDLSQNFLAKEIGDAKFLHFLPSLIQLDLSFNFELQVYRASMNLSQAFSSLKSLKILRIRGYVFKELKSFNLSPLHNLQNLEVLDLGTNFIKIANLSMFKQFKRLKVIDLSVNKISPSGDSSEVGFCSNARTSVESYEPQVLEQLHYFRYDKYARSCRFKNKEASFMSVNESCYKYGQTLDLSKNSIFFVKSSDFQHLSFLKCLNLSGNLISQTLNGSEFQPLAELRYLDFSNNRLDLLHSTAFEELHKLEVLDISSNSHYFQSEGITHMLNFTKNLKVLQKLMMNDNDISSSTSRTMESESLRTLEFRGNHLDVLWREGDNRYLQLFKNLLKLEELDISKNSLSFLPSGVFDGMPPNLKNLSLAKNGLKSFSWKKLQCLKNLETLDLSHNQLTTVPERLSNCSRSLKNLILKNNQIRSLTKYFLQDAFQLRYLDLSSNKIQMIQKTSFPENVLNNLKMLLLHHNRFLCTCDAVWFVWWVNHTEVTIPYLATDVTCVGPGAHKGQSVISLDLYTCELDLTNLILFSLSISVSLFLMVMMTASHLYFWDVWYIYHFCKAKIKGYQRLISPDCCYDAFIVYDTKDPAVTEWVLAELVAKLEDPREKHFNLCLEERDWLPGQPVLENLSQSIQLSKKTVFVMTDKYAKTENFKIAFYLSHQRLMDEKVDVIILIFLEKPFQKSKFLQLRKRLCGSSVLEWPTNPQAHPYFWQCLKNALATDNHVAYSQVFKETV
Summary of the method: (§1)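 Inhibitors are tested in dose response (0.05 nM–50 μM) on HEK-Blue reporter cells expressing human TLR7, TLR8 or TLR9. After 30 min at room temperature, each line is stimulated with its own agonist (gardiquimod 7.5 μM, R848 15.9 μM or ODN2006 5 nM, final) and SEAP is measured 22 h later.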

[2] = molecular target: T2, human TLR9 (Homo sapiens, UniProt Q9NR96); experiment: TLR9 inhibition reporter assay (HEK-Blue cells, secreted embryonic alkaline phosphatase reporter)
T2 construct: host or cells: HEK-Blue cells (HEK293-derived reporter line)
T2 sequence (Q9NR96 26-1032): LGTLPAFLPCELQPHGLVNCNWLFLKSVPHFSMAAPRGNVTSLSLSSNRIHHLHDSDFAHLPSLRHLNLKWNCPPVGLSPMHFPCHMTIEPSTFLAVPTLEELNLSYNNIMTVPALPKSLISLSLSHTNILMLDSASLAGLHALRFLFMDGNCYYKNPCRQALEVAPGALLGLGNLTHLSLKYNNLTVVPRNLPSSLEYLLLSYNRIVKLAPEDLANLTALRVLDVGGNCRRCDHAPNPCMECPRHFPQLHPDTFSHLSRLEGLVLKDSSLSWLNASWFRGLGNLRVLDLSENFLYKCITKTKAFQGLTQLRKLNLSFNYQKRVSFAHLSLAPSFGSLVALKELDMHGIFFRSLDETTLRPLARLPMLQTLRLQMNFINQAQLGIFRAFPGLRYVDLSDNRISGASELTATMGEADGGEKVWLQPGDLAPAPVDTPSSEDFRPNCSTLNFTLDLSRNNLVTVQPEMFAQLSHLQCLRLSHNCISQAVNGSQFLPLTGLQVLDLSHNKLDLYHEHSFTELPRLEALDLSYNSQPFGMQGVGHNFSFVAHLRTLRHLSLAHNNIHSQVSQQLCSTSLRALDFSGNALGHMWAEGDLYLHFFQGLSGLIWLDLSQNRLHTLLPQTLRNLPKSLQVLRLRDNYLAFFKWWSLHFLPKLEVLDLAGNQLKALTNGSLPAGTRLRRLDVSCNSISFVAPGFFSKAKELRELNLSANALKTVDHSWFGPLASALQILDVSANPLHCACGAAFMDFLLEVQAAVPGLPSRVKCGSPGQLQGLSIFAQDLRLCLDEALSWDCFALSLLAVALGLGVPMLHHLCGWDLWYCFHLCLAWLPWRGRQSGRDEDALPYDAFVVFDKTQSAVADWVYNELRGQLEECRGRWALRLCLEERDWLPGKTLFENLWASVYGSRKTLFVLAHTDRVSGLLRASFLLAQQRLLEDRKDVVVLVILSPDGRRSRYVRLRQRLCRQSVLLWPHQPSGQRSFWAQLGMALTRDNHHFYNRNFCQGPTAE
Summary of the method: as §1

[3] = molecular target: T3, human TLR8 (Homo sapiens, UniProt Q9NR97); experiment: TLR8 inhibition reporter assay (HEK-Blue cells, secreted embryonic alkaline phosphatase reporter); details: HEK-Blue cells overexpressing human TLR8, stimulated with R848 15.9 μM; read-out: TLR 8 IC50
T3 construct: host or cells: HEK-Blue cells (HEK293-derived reporter line)
T3 sequence (Q9NR97 27-1041): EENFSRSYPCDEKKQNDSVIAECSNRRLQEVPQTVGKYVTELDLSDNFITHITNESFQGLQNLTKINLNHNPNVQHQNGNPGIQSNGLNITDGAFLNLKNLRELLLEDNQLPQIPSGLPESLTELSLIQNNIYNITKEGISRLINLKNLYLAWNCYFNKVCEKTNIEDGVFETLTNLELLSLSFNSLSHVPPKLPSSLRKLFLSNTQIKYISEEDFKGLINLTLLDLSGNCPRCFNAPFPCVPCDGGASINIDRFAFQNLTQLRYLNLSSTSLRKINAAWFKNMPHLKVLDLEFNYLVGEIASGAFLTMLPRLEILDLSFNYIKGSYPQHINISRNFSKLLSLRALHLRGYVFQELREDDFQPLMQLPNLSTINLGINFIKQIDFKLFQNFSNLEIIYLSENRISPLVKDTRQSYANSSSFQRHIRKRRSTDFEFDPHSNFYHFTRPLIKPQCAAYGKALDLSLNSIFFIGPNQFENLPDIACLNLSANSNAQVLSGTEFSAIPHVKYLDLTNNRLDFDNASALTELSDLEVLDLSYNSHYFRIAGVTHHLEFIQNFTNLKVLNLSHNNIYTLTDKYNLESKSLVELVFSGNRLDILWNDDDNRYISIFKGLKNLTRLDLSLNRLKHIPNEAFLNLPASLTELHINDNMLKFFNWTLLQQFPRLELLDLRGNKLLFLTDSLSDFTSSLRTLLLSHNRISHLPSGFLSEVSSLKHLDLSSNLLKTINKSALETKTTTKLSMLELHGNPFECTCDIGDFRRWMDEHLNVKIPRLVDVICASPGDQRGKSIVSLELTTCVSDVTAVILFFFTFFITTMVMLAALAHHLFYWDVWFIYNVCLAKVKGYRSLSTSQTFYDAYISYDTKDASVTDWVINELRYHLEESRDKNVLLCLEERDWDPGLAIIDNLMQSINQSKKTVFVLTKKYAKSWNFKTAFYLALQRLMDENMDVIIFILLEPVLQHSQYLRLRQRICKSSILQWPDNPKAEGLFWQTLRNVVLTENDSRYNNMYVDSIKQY
Summary of the method: as §1

[4] = HEK-Blue cells overexpressing human TLR9, stimulated with ODN2006 5 nM, 22 hour incubation, reporter readout
[5] = HEK-Blue cells overexpressing human TLR9, stimulated with ODN2006 5 nM, read-out: TLR 9 IC50

SMILES | IC50 [1] [nM] | IC50 [2, 4] [nM] | IC50 [2, 5] [nM] | IC50 [3] [nM] | IC50 ([2]; HEK-Blue human TLR9 reporter cells) [nM] | IC50 [2] [nM]
COc1ccc(-c2nc3c(C)cc(C4CCN(C5CC6(C5)CN(CC5CC5)C6)CC4)cc3n2C)cc1OC [Example 48, 6-(1-(2-(cyclopropylmethyl)-2-azaspiro[3.3]heptan-6-yl)piperidin-4-yl)-2-(3,4-dimethoxyphenyl)-1,4-dimethyl-1H-benzo[d]imidazole] | > 50000 | 19 | 19 | > 50000 |  | 
CC(C)CN1C2CCC1CC(N1CCC(c3cc(F)c4c(c3)nc(-c3ccc(S(C)(=O)=O)cc3)n4C)CC1)C2 (centres unmarked) [Example 209, 7-fluoro-5-(1-(8-isobutyl-8-azabicyclo[3.2.1]octan-3-yl)piperidin-4-yl)-1-methyl-2-(4-(methylsulfonyl)phenyl)-1H-benzo[d]imidazole] | 16700 |  | 81 | 16700 |  | 81
CC(C)CN1C2CCC1CC(N1CCC(c3ccc4nc(-c5ccc(S(C)(=O)=O)cc5)[nH]c4c3F)CC1)C2 (single isomer, unassigned) [Example 219, 7-fluoro-6-(1-(8-isobutyl-8-azabicyclo[3.2.1]octan-3-yl)piperidin-4-yl)-2-(4-(methylsulfonyl)phenyl)-1H-benzo[d]imidazole] | 18500 |  | 65 | > 50000 |  | 65
CC(C)CN1CCC(N2CCC(c3ccc4nc(-c5ccc(S(C)(=O)=O)cc5)[nH]c4c3F)CC2)CC1 [Example 177, 7-fluoro-6-(1′-isobutyl-[1,4′-bipiperidin]-4-yl)-2-(4-(methylsulfonyl)phenyl)-1H-benzo[d]imidazole] | > 50000 |  | 120 | > 50000 |  | 120
COc1ccc(-c2nc3cc(C4CCN(C5CCN(C(C)C)CC5)CC4)ccc3n2C)cc1OC [Example 5, 2-(3,4-dimethoxyphenyl)-5-(1′-isopropyl-[1,4′-bipiperidin]-4-yl)-1-methyl-1H-benzo[d]imidazole] | 6800 | 250 |  | 840 |  | 
Cn1c(-c2ccc(S(C)(=O)=O)cc2)nc2cc(C3CCN(C4CC5CCC(C4)N5C4CCC4)CC3)cc(F)c21 (single isomer, unassigned) [Example 215, 5-(1-(8-cyclobutyl-8-azabicyclo[3.2.1]octan-3-yl)piperidin-4-yl)-7-fluoro-1-methyl-2-(4-(methylsulfonyl)phenyl)-1H-benzo[d]imidazole] | 17000 |  | 70 | > 50000 |  | 70

Molecules with a lower IC50 [1], results first:

IC50 [1] [nM] | IC50 [2, 4] [nM] | IC50 [2, 5] [nM] | IC50 [3] [nM] | IC50 ([2]; HEK-Blue human TLR9 reporter cells) [nM] | IC50 [2] [nM] | SMILES
3800 |  | 258 | > 50000 | 260 |  | Cc1cc(C2CCN(C3CCN(CC4CC4)CC3)CC2)cc2c1nc(-c1ccc(S(C)(=O)=O)c(F)c1)n2C [Example 338, 6-(1′-(cyclopropylmethyl)-[1,4′-bipiperidin]-4-yl)-2-(3-fluoro-4-(methylsulfonyl)phenyl)-1,4-dimethyl-1H-benzo[d]imidazole]
3200 | 50 | 50 | > 50000 |  |  | COc1ccc(-c2nc3c(C)cc(C4CCN(C5CCN(CC(C)C)CC5)CC4)cc3[nH]2)cc1F [Example 56, 2-(3-fluoro-4-methoxyphenyl)-6-(1′-isobutyl-[1,4′-bipiperidin]-4-yl)-4-methyl-1H-benzo[d]imidazole]
2700 | 250 | 249 | 1300 |  |  | CCn1c(-c2ccc(OC)c(OC)c2)nc2cc(C3CCN(C4CCN(C(C)C)CC4)CC3)ccc21 (single isomer, unassigned) [Example 9, 2-(3,4-dimethoxyphenyl)-1-ethyl-5-(1′-isopropyl-[1,4′-bipiperidin]-4-yl)-1H-benzo[d]imidazole]
1300 | 350 | 346 | 19600 |  |  | CN(C)C1CCN(Cc2ccc(-c3ccc4nc(-c5cccc(F)c5)n(C)c4c3)cc2)CC1 [Example 377, 1-(4-(2-(3-fluorophenyl)-1-methyl-1H-benzo[d]imidazol-6-yl)benzyl)-N,N-dimethylpiperidin-4-amine]
1000 | 98 | 98 | 18800 |  |  | CN(C)C1CCN(Cc2ccc(-c3ccc4nc(-c5ccccc5S(C)(=O)=O)n(C)c4c3)cc2)CC1 [Example 379, N,N-dimethyl-1-(4-(1-methyl-2-(2-(methylsulfonyl)phenyl)-1H-benzo[d]imidazol-6-yl)benzyl)piperidin-4-amine]
100 | 69 | 69 | 7200 |  |  | Cc1cc(-c2ccc(CN3CC4(C3)CN(C(C)C)C4)c(F)c2)cc2c1nc(-c1ccc(S(C)(=O)=O)cc1)n2C [Example 404, 6-(3-fluoro-4-((6-isopropyl-2,6-diazaspiro[3.3]heptan-2-yl)methyl)phenyl)-1,4-dimethyl-2-(4-(methylsulfonyl)phenyl)-1H-benzo[d]imidazole]

Source: US12492188B2, “1H-benzo[D]imidazole derivatives as TLR9 inhibitors for the treatment of fibrosis” (BRISTOL-MYERS SQUIBB COMPANY, priority 2020, dated 2025)
